Key:
[1] = tested on: LoVo cell line with knock-down KRAS, TET1/2 interfered; experiment: Proliferation with TET1/2 interfered; format: cell-based, human; conditions: MATE1 down-regulated once again, FIG. 16G
[2] = tested on: KRAS (G13D) mutation cells constructed via the CRISPR/Cas9 system; experiment: Concentration of metformin in cells by mass spectrometry; format: cell-based, human; conditions: compared with the control cell, FIG. 11C
From the text: (§1) The increase of concentration of metformin in KRAS mutation cells was verified by using the KRAS (G13D) mutation cells constructed via the CRISPR/Cas9 system and the LoVo cell line with stable knock-down KRAS.
(§2) Metformin was used to detect the KRAS (G13D) mutation cells constructed via the CRISPR/Cas9 system and the LoVo cell line with stable knock-down KRAS to collect cell lysis solution at different time points, and the concentration of metformin in the cells was detected by mass spectrometry.

[3] = tested on: LoVo cell line with stable knock-down KRAS; experiment: as above; format: cell-based, human; conditions: relative to LoVo, FIG. 11D
From the text: as §1, §2

[4] = tested on: KRAS wildtype CRC cells SW48; experiment: Apoptosis, Annexin V/PI double staining; format: cell-based, human; conditions: 2.5 mM, 5 mM and 10 mM, 24 h
Protocol: (§3) Annexin V/PI double staining was used on the KRAS wildtype cell SW48 and KRAS (G13D) mutation cells LoVo to detect the effect of metformin on the apoptosis of colorectal cancer cells.
(§4) 1) The cells were inoculated on a 6-well plate and subjected to adherence growth for 12 h, starvation treatment over the night, and treated with the addition of an agent for 24 h, then the cells were digested by EDTA-free trypsin and washed for once with PBS without immobilization.
(§5) 2) The cells were resuspended with the addition of 300 μl Binding Buffer, then 3 μl Annexin V-FITC and 3 μl Propidium Iodide (PI) were added and mixed well for incubation for 30 min in the dark at room temperature, then the cells were determined by a flow cytometry.
(§6) 3) Flow cytometry detection of antibodies: apoptosis kit (A211-02) was purchased from KeyGEN; the detection kit (558662) for cell cycle PI simple staining was purchased from BD company.

[5] = tested on: KRAS mutation CRC cells LoVo; experiment: Apoptosis, Annexin V/PI double staining; format: cell-based, human; conditions: 2.5 mM, 5 mM and 10 mM, 24 h
Protocol: as §3, §4, §5, §6

[6] = tested on: SW48 CDX; experiment: Cell-derived xenograft (CDX), tumor growth; format: in vivo, BALB/c nude mice; conditions: 200 mg/kg in water, 30 d, vs control group, FIGS. 12G-L
Protocol: The tumor inhibition effect of MATE1 with metformin was verified by a cell-derived xenograft transplantation model (CDX) experiment.
In the CDX, CRISPR/Cas9 was first utilized to build a KRAS^G13DSW48 cell line; MATE1 was knocked down by shRNA lentivirus transduction in SW48 to build a sh-MATE1-SW48 cell line; lentivirus was infected in KRAS^G13DSW48 cells to over-express MATE1. 1×10^6 cells were suspended in a basement membrane matrix (100 μl basement membrane matrix and 100 μl PBS) and subcutaneously injected into BALB/c nude mice. CDX mice were randomly distributed into a metformin treatment group and a control group. 200 mg/kg (equivalent to human 1000 mg) metformin was dissolved into water, and respectively taken by the 4 groups of animals; then the tumor size was measured; 30 d later, the tumor tissues were killed and weighed.

[7] = tested on: KRAS wildtype CRC cells SW48; experiment: Plate clone formation; format: cell-based, human; conditions: FIGS. 8A-B
Protocol: (§7) 1) Cell inoculation: the culture solution was absorbed and discarded to collect the cells, then the cells were suspended in a treatment condition culture solution, and counted for 3 times to obtain a mean value, then the concentration of a cell suspension was adjusted to 1×10^3/ml. 2.5 ml treatment condition culture solution was respectively added to per well of a 6-well culture plate; 0.5 ml cell suspension (namely, 500 cells per well) was added per well with a final volume of 3 ml. Note that the culture plate was shaken repeatedly according to a cross-shaped direction during inoculation, such that the cells were distributed evenly as much as possible.
(§8) 3) Clone staining: the culture was stopped when the cells formed visible clones (the number of cloned cells per well was about 50-150) by the naked eyes. The culture medium was discarded, and the clones were soaked and washed for twice with PBS carefully, 1.5 ml 4% paraformaldehyde was respectively added per well for immobilization for 15 min; then the immobilization solution was discarded, and the clones were cleaned with running water slowly; 1.5 ml crystal violet working solution was added per well, standing at room temperature, and the clones were stained for 30 min, and the staining solution was cleaned with running water slowly, then the remaining clones were dried in a draught cupboard. […]

[8] = tested on: KRAS mutation CRC cells LoVo; experiment: Plate clone formation; format: cell-based, human; conditions: FIGS. 8A-B
Protocol: as §7, §8

[9] = tested on: colorectal cancer cells (LoVo, SW48) with altered MATE1; experiment: Proliferation with MATE1 over-expressed on LoVo or interfered on SW48; format: cell-based, human; conditions: FIGS. 12E-F
[10] = tested on: LoVo cell line with knock-down KRAS protein; experiment: Cell cycle in KRAS knock-down cells; format: cell-based, human; conditions: relative to LoVo, FIG. 8D
Protocol: 1) KRAS interference lentivirus (sh-KRAS) was constructed and packaged by Shanghai Genechem Co., LTD.
2) LoVo cells were subcultured to a 6-well plate (about 1×10^5/well), when cells were subjected to adherence growth, and the degree of cell fusion was not greater than 50%, fresh culture solution was replaced ahead of 2 h, and 10 μg/mL lentivirus infection enhancer polybrene was added. Multiplicity of Infection (MOI) of LoVo was about 20; lentivirus was added according to the formula: adding amount of lentivirus per well (μl)=MOI×cell population/titer (TU/ml)×1000. The culture solution was replaced after 16-18 h, and 1 μM puromycin was conventionally added for screening the cell line whose RNA stable expression was interfered by KRAS.
(§9) 1) The cells were inoculated onto a 6-well plate, and subjected to adherence growth for 12 h, then starvation treatment over the night, and treated with the addition of an agent for 24 h, then the cells were digested and washed for 3 times with PBS and centrifuged to discard supernatant; −20° C. pre-cooled 70% ethanol was added dropwise, and the cells were mixed well by vortex, and immobilized over the night at −20° C.
2) The cells were horizontally centrifuged for 10 min at 2000 rpm to discard the supernatant; then the cells were washed with PBS for 2-3 times to remove the residual ethanol with centrifugation for 5 min each time. […]

[11] = tested on: KRAS wildtype CRC cells SW48; experiment: Cell cycle, PI/RNase staining, flow cytometry; format: cell-based, human; conditions: 24 h, FIG. 8C
Protocol: as §9
(§10) 2) The cells were horizontally centrifuged for 10 min at 2000 rpm to discard the supernatant; then the cells were washed with PBS for 2-3 times to remove the residual ethanol with centrifugation for 5 min each time.
(§11) 3) The cells were resuspended by 500 μL PI/RNase dyeing liquor, and incubated for 15 min in the dark, and put on a flow cytometry within 2 h for detection, and 488 nm wavelength was stimulated.
(§12) 4) FlowJo 7.6 software was used for graphing analysis.

[12] = tested on: KRAS mutation CRC cells LoVo; experiment: Cell cycle, PI/RNase staining, flow cytometry; format: cell-based, human; conditions: 24 h, FIG. 8C
Protocol: as §9, §10, §11, §12

## CN(C)C(=N)N=C(N)N [metformin]
[1]
  inhibiting effect on proliferation of tumor cells with TET1/2 interfered: accelerating the inhibiting effect
[2]
  concentration of metformin in cells: obviously increased concentration
[3]
  concentration of metformin in cells: decreases obviously
[4]
  apoptosis: do not accelerate the apoptosis
[5]
  apoptosis: do not accelerate the apoptosis
[6]
  anti-tumor effect (tumor growth): no obvious anti-tumor effect
[7]
  clone formation: no obvious effect
[8]
  clone formation: inhibits the clone formation
[9]
  inhibiting effect on proliferation with down-regulated expression of MATE1: accelerating the inhibiting effect
[10]
  inhibiting effect on transformation from G1 phase to phase S after interference of KRAS (G13D) expression: down-regulate the inhibiting effect
[11]
  cell cycle distribution (G1, phase S): no obvious effect
[12]
  ratio of phase S cells: reduces
[12]; concentration dependent
  ratio of G1 cells: dependently increases

Source: patent publication US20220125877A1, “METHOD FOR TREATING COLORECTAL CANCER” (SUN YAT-SEN UNIVERSITY, priority 2019, published 2022)
